In patent US20260325533A1, “CDK INHIBITOR COMPOUNDS” (ALEKSIA THERAPEUTICS, INC., priority 2023, published 2026):
Where two headings read alike, the source gives them in different places.

Columns and labels:
Format in all cases: biochemical
CDK4/CCND3 = CDK4/CCND3 (Homo sapiens, UniProt P11802); experiment: CDK4 homogeneous time-resolved fluorescence (HTRF) kinase assay; details: CDK4/CCND
Summary of the method: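 Steps: compound plus 1.5 nM CDK4/CCND3, 20 min, 23 °C; add 1 mM ATP and 50 nM ULight-4E-BP1 (Thr37/46) peptide, 60 min; stop with 10 mM EDTA; add 2 nM Eu anti-phospho antibody, 60 min; read 665 nm. IC50 from 11-point half-log series starting 10 μM.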

CDK1/CCNB1 = CDK1/CCNB1 (Homo sapiens, UniProt P06493); experiment: CDK1 homogeneous time-resolved fluorescence (HTRF) kinase assay; details: CDK1/CCNB
Summary of the method: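 0.5 nM CDK1/CCNB1 was preincubated 20 min at 23 °C with compound in HEPES pH-unspecified buffer (MgCl2, EGTA, DTT, Tween 20), then reacted 60 min with 1 mM ATP and 50 nM ULight-4E-BP1 (Thr37/46) peptide. EDTA-stopped reactions were detected with 2 nM Eu-anti-phospho antibody; IC50 from 11-point half-log titrations.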

CDK6/CCND1 = CDK6/CCND1 (Homo sapiens, UniProt Q00534); experiment: CDK6 homogeneous time-resolved fluorescence (HTRF) kinase assay; details: CDK6/CCND, 1 mM ATP
Summary of the method: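 Enzyme pre-incubated 20 min at 23 °C with compound, then reacted 60 min at 23 °C with 1 mM ATP and 50 nM ULight-4E-BP1 (Thr37/46) peptide; 1 nM enzyme, 1% DMSO. EDTA-stopped, Eu-anti-phospho antibody TR-FRET read (665 nm or 665/615 ratio); 11-point half-log titration from 10 μM gave IC50.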

CDK2/CCNE1 = CDK2/CCNE1 (Homo sapiens, UniProt P24941); experiment: CDK2 homogeneous time-resolved fluorescence (HTRF) kinase assay; details: CDK2/CCNE
Summary of the method: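 3 nM CDK2/CCNE1 was preincubated with compound for 20 min at 23 °C in HEPES buffer (pH not stated), then reacted 60 min with 1 mM ATP and 50 nM ULight-4E-BP1 (Thr37/46) peptide. After EDTA stop, Eu-anti-phospho-4E-BP1 antibody (2 nM) was added for 60 min and TR-FRET read at 665 nm.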

[1] = >250 nM, read-out: CDK4/CCND IC50, >250 nM
[2] = >250 nM, read-out: CDK1/CCNB IC50 >250 nM
[3] = >250 nM, read-out: CDK6/CCND IC50, >250 nM
[4] = 25-250 nM, read-out: CDK2/CCNE IC50, 25-250 nM
[5] = <25 nM, read-out: CDK2/CCNE IC50, <25 nM
[6] = 25-250 nM, read-out: CDK1/CCNB IC50, 25-250 nM
[7] = 25-250 nM, read-out: CDK6/CCND IC50, 25-250 nM

Chain of CDK1/CCNB1 (P06493 whole entry): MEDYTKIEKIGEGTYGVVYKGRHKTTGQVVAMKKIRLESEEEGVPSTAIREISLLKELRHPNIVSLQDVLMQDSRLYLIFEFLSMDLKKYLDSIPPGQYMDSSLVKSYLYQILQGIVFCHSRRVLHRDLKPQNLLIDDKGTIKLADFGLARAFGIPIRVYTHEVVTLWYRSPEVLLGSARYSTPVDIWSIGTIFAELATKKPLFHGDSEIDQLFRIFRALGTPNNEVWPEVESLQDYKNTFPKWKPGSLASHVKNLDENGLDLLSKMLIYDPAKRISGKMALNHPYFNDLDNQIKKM
Chain of CDK1/CCNB1 (P14635 whole entry partner): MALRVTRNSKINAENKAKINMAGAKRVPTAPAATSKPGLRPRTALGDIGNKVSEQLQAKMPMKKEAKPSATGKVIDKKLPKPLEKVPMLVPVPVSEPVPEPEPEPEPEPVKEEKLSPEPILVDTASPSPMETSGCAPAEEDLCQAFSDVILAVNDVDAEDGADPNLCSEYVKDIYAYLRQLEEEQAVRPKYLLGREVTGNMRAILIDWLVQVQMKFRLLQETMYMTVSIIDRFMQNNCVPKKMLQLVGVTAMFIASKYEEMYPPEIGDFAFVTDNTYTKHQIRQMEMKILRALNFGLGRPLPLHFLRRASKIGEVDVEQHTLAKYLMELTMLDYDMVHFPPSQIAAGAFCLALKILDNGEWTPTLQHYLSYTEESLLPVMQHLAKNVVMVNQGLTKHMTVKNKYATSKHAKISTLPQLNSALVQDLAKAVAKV
Chain of CDK6/CCND1 (Q00534 whole entry): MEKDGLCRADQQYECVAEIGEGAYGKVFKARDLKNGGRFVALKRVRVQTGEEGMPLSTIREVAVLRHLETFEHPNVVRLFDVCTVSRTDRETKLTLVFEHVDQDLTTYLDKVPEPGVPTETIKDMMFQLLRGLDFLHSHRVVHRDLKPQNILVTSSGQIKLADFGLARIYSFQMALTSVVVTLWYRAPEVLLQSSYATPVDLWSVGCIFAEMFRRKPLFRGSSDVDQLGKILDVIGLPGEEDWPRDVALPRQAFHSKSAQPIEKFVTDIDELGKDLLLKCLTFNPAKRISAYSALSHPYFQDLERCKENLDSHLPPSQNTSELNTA
Chain of CDK6/CCND1 (P24385 whole entry partner): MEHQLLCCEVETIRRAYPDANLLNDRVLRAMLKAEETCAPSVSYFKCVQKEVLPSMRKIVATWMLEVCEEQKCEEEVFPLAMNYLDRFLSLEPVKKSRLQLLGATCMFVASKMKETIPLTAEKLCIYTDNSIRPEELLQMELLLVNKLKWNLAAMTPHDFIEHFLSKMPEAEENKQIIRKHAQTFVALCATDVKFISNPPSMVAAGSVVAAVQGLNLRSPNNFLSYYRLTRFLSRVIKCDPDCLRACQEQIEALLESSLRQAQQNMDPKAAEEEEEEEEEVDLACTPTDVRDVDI
Chain of CDK4/CCND3 (P11802 whole entry): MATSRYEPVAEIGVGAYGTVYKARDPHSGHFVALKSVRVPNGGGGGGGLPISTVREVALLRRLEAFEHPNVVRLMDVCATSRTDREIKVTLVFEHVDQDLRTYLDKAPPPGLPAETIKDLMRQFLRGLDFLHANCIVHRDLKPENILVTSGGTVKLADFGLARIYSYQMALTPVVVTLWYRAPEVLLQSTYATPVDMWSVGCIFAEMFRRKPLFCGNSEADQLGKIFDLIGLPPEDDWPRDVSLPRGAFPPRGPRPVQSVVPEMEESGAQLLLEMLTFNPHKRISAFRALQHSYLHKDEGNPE
Chain of CDK4/CCND3 (P30281 whole entry partner): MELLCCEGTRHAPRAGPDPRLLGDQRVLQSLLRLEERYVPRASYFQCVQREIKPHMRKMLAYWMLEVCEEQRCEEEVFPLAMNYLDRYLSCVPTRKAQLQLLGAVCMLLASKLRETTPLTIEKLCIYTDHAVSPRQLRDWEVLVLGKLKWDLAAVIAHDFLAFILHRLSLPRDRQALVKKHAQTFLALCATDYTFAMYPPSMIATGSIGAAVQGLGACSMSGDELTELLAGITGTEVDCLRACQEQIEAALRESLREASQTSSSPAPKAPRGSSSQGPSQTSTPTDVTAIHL

| IC50 (CDK4/CCND3; [1]) [nM] | IC50 (CDK1/CCNB1; [2]) [nM] | IC50 (CDK6/CCND1; [3]) [nM] | IC50 (CDK2/CCNE1; [4]) [nM] | IC50 (CDK2/CCNE1; [5]) [nM] | IC50 (CDK1/CCNB1; [6]) [nM] | IC50 (CDK6/CCND1; [7]) [nM] | IC50 (CDK4/CCND3; 25-250 nM, read-out: CDK4/CCND IC50, 25-250 nM) [nM] | IC50 (CDK2/CCNE1; >250 nM, read-out: CDK2/CCNE IC50, >250 nM) [nM] | Structure (SMILES) |
| --- | --- | --- | --- | --- | --- | --- | --- | --- | --- |
| > 250 | > 250 | > 250 | 25 to 250 |  |  |  |  |  | COc1ccc(NS(=O)(=O)c2ccc(Nc3cc4c(-c5ccc6c(cnn6CC(O)(C(F)(F)F)C(F)(F)F)c5C)nccc4cn3)cc2)nc1 [Ex 719, N-(5-methoxypyridin-2-yl)-4-((5-(4-methyl-1-(3,3,3-trifluoro-2-hydroxy-2-(trifluoromethyl)propyl)-1H-indazol-5-yl)-2,6-naphthyridin-3-yl)amino)benzenesulfonamide] |
| > 250 | > 250 | > 250 | 25 to 250 |  |  |  |  |  | Cc1c(-c2nccc3cnc(Nc4ccc(S(=O)(=O)Nc5cccc(C(F)(F)F)n5)cc4)cc23)ccc2c1cnn2CC(O)(C(F)(F)F)C(F)(F)F [Ex 720, 4-((5-(4-methyl-1-(3,3,3-trifluoro-2-hydroxy-2-(trifluoromethyl)propyl)-1H-indazol-5-yl)-2,6-naphthyridin-3-yl)amino)-N-(6-(trifluoromethyl)pyridin-2-yl)benzenesulfonamide] |
| > 250 | > 250 | > 250 |  | < 25 |  |  |  |  | Cc1c(-c2nccc3cnc(Nc4ccc(S(=O)(=O)Nc5ncccn5)cc4)cc23)ccc2c1cnn2CC(O)(C(F)(F)F)C(F)(F)F [Ex 727, 4-((5-(4-methyl-1-(3,3,3-trifluoro-2-hydroxy-2-(trifluoromethyl)propyl)-1H-indazol-5-yl)-2,6-naphthyridin-3-yl)amino)-N-(pyrimidin-2-yl)benzenesulfonamide] |
| > 250 | > 250 | > 250 | 25 to 250 |  |  |  |  |  | COc1cccc(NS(=O)(=O)c2ccc(Nc3cc4c(-c5ccc6c(cnn6CC(O)(C(F)(F)F)C(F)(F)F)c5C)nccc4cn3)cc2)n1 [Ex 735, N-(6-methoxypyridin-2-yl)-4-((5-(4-methyl-1-(3,3,3-trifluoro-2-hydroxy-2-(trifluoromethyl)propyl)-1H-indazol-5-yl)-2,6-naphthyridin-3-yl)amino)benzenesulfonamide] |
| > 250 | > 250 | > 250 |  | < 25 |  |  |  |  | COc1ccnc(NS(=O)(=O)c2ccc(Nc3cc4c(-c5ccc6c(cnn6CC(O)(C(F)(F)F)C(F)(F)F)c5C)nccc4cn3)cc2)n1 [Ex 737, N-(4-methoxypyrimidin-2-yl)-4-((5-(4-methyl-1-(3,3,3-trifluoro-2-hydroxy-2-(trifluoromethyl)propyl)-1H-indazol-5-yl)-2,6-naphthyridin-3-yl)amino)benzenesulfonamide] |
| > 250 | > 250 | > 250 | 25 to 250 |  |  |  |  |  | Cc1c(-c2nccc3cnc(Nc4ccc(S(=O)(=O)Nc5cccc(N6CCOCC6)c5)cc4)cc23)ccc2c1cnn2CC(O)(C(F)(F)F)C(F)(F)F [Ex 738, 4-((5-(4-methyl-1-(3,3,3-trifluoro-2-hydroxy-2-(trifluoromethyl)propyl)-1H-indazol-5-yl)-2,6-naphthyridin-3-yl)amino)-N-(3-morpholinophenyl)benzenesulfonamide] |
| > 250 | > 250 | > 250 |  |  |  |  |  | > 250 | Cc1c(-c2nccc3cnc(Nc4ccc(S(=O)(=O)Nc5cc(C(F)(F)F)ccn5)cc4)cc23)ccc2c1cnn2CC(O)(C(F)(F)F)C(F)(F)F [Ex 740, 4-((5-(4-methyl-1-(3,3,3-trifluoro-2-hydroxy-2-(trifluoromethyl)propyl)-1H-indazol-5-yl)-2,6-naphthyridin-3-yl)amino)-N-(4-(trifluoromethyl)pyridin-2-yl)benzenesulfonamide] |
| > 250 | > 250 | > 250 |  | < 25 |  |  |  |  | Cc1c(-c2nccc3cnc(Nc4ccc(S(=O)(=O)Nc5cc(N6CCOCC6)ccn5)cc4)cc23)ccc2c1cnn2CC(O)(C(F)(F)F)C(F)(F)F [Ex 741, 4-((5-(4-methyl-1-(3,3,3-trifluoro-2-hydroxy-2-(trifluoromethyl)propyl)-1H-indazol-5-yl)-2,6-naphthyridin-3-yl)amino)-N-(4-morpholinopyridin-2-yl)benzenesulfonamide] |

The remaining lines, values behind:

| Structure (SMILES) | IC50 (CDK4/CCND3; [1]) [nM] | IC50 (CDK1/CCNB1; [2]) [nM] | IC50 (CDK6/CCND1; [3]) [nM] | IC50 (CDK2/CCNE1; [4]) [nM] | IC50 (CDK2/CCNE1; [5]) [nM] | IC50 (CDK1/CCNB1; [6]) [nM] | IC50 (CDK6/CCND1; [7]) [nM] | IC50 (CDK4/CCND3; 25-250 nM, read-out: CDK4/CCND IC50, 25-250 nM) [nM] | IC50 (CDK2/CCNE1; >250 nM, read-out: CDK2/CCNE IC50, >250 nM) [nM] |
| --- | --- | --- | --- | --- | --- | --- | --- | --- | --- |
| CC[C@H](C)NS(=O)(=O)c1ccc(Nc2cc3c(-c4ccc5c(cnn5CC(C)(C)O)c4C)nccc3cn2)cc1 [Ex 722, (S)-N-(sec-butyl)-4-((5-(1-(2-hydroxy-2-methylpropyl)-4-methyl-1H-indazol-5-yl)-2,6-naphthyridin-3-yl)amino)benzenesulfonamide] | > 250 | > 250 | > 250 |  | < 25 |  |  |  |  |
| Cc1c(-c2nccc3cnc(Nc4ccc(S(N)(=O)=O)cc4)cc23)ccc2c1cnn2CC(O)(C(F)(F)F)C(F)(F)F [Ex 726, 4-((5-(4-methyl-1-(3,3,3-trifluoro-2-hydroxy-2-(trifluoromethyl)propyl)-1H-indazol-5-yl)-2,6-naphthyridin-3-yl)amino)benzenesulfonamide] | > 250 |  |  |  | < 25 | 25 to 250 | 25 to 250 |  |  |
| Cc1c(-c2nccc3cnc(Nc4ccc(S(=O)(=O)Nc5ccccc5)cc4)cc23)ccc2c1cnn2CC(O)(C(F)(F)F)C(F)(F)F [Ex 728, 4-((5-(4-methyl-1-(3,3,3-trifluoro-2-hydroxy-2-(trifluoromethyl)propyl)-1H-indazol-5-yl)-2,6-naphthyridin-3-yl)amino)-N-phenylbenzenesulfonamide] | > 250 | > 250 | > 250 | 25 to 250 |  |  |  |  |  |
| Cc1c(-c2nccc3cnc(Nc4ccc(S(=O)(=O)NCc5ccccc5)cc4)cc23)ccc2c1cnn2CC(O)(C(F)(F)F)C(F)(F)F [Ex 729, N-benzyl-4-((5-(4-methyl-1-(3,3,3-trifluoro-2-hydroxy-2-(trifluoromethyl)propyl)-1H-indazol-5-yl)-2,6-naphthyridin-3-yl)amino)benzenesulfonamide] | > 250 | > 250 | > 250 | 25 to 250 |  |  |  |  |  |
| Cc1c(-c2nccc3cnc(Nc4ccc(S(=O)(=O)NCc5ccccc5)cc4)cc23)ccc2c1cnn2CC(C)(C)O [Ex 730, N-benzyl-4-((5-(1-(2-hydroxy-2-methylpropyl)-4-methyl-1H-indazol-5-yl)-2,6-naphthyridin-3-yl)amino)benzenesulfonamide] | > 250 | > 250 | > 250 |  | < 25 |  |  |  |  |
| CCN(c1ncccn1)S(=O)(=O)c1ccc(Nc2cc3c(-c4ccc5c(cnn5CC(O)(C(F)(F)F)C(F)(F)F)c4C)nccc3cn2)cc1 [Ex 731, N-ethyl-4-((5-(4-methyl-1-(3,3,3-trifluoro-2-hydroxy-2-(trifluoromethyl)propyl)-1H-indazol-5-yl)-2,6-naphthyridin-3-yl)amino)-N-(pyrimidin-2-yl)benzenesulfonamide] | > 250 | > 250 | > 250 | 25 to 250 |  |  |  |  |  |
| Cc1c(-c2nccc3cnc(Nc4ccc(S(=O)(=O)N(C)c5ncccn5)cc4)cc23)ccc2c1cnn2CC(C)(C)O [Ex 734, 4-((5-(1-(2-hydroxy-2-methylpropyl)-4-methyl-1H-indazol-5-yl)-2,6-naphthyridin-3-yl)amino)-N-methyl-N-(pyrimidin-2-yl)benzenesulfonamide] |  |  |  |  | < 25 | 25 to 250 | 25 to 250 | 25 to 250 |  |
| Cc1cc(C)nc(NS(=O)(=O)c2ccc(Nc3cc4c(-c5ccc6c(cnn6CC(O)(C(F)(F)F)C(F)(F)F)c5C)nccc4cn3)cc2)n1 [Ex 736, N-(4,6-dimethylpyrimidin-2-yl)-4-((5-(4-methyl-1-(3,3,3-trifluoro-2-hydroxy-2-(trifluoromethyl)propyl)-1H-indazol-5-yl)-2,6-naphthyridin-3-yl)amino)benzenesulfonamide] | > 250 | > 250 | > 250 |  | < 25 |  |  |  |  |
| COc1cc(NS(=O)(=O)c2ccc(Nc3cc4c(-c5ccc6c(cnn6CC(O)(C(F)(F)F)C(F)(F)F)c5C)nccc4cn3)cc2)cc(OC)c1 [Ex 739, N-(3,5-dimethoxyphenyl)-4-((5-(4-methyl-1-(3,3,3-trifluoro-2-hydroxy-2-(trifluoromethyl)propyl)-1H-indazol-5-yl)-2,6-naphthyridin-3-yl)amino)benzenesulfonamide] | > 250 | > 250 | > 250 | 25 to 250 |  |  |  |  |  |
